Experimental data from patent publication US9266827B2, “Bicyclic sulfone compounds for inhibition of RORgamma activity and the treatment of disease” (Merck Sharp & Dohme Corp., priority 2012, dated 2016).

Biological target: T1, RORγ-LBD (Homo sapiens, UniProt P51449)
T1 construct: made in house; host or cells: SF9 insect cells, baculovirus; crude lysate used
T1 sequence (P51449 269-508 limits assumed): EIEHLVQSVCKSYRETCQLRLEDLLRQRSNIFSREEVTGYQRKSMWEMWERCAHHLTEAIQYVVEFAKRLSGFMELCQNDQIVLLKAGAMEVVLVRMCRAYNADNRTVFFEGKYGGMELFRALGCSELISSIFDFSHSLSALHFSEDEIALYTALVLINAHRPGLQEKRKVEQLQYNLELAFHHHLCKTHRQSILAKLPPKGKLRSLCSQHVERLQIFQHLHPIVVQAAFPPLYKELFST
Experiment: RORγ-Ligand Binding Domain (LBD) TR-FRET Assay
Assay type: biochemical
Conditions: recombinant HIS-tagged RORγ-LBD lysate, biotinylated SRC1-2 LXXLL peptide
Procedure: Recombinant, HIS-tagged RORγ-LBD was expressed in SF9 cells using a baculovirus expression system. Cells were lysed and the lysate was used as a source for RORγ-LBD for the assay. A 1:80 dilution of RORγ-LBD lysate in assay buffer (25 mM HEPES pH 7.0, 100 mM NaCl, 0.01% Tween, 0.1% BSA) was prepared and 5 μL was added to each well (RORγ-LBD final concentration ˜3 nM). Control wells received lysate from SF9 cells not expressing RORγ-LBD.
Compounds to be tested were diluted to 100× final test concentration in DMSO and further diluted to 4× final test concentration using assay buffer to provide the test compound mixture. An aliquot (5 μL) of the test compound mixture was added to each well.
A 4× stock of biotinylated-LXXLL peptide from SRC1-2 (Biotin-[…]) was prepared in assay buffer and a 5 μL aliquot added to each well (450 nM final concentration). A 4× solution of europium tagged anti-HIS antibody (2 nM final concentration) and APC conjugated streptavidin (60 nM final concentration) were prepared and a 5 μL aliquot added to each well.
The final assay mixture was incubated for 4 hours to overnight, and the fluorescence signal was measured on an Envision plate reader: (Excitation filter=340 nm; APC emission=665 nm; Europium emission=615 nm; dichroic mirror=D400/D630; delay time=100 μs, integration time=200 μs).
EC50 values for test compounds were calculated from the quotient of the fluorescence signal at 665 nm divided by the fluorescence signal at 615 nm using GraphPad Prism software

| EC50 [nM] | Structure (SMILES) |
| --- | --- |
| < 150 | O=C(Nc1ccc2c(c1)C(S(=O)(=O)c1ccc(C(F)(F)F)cc1)CCC2)c1c(F)cccc1Cl (stereo not shown) [Compound 1, 2-Chloro-6-fluoro-N-[8-(4-trifluoromethylbenzenesulfonyl)-5,6,7,8-tetrahydronaphthalen-2-yl]benzamide] |
| < 150 | O=C(Nc1ccc2c(c1)C(S(=O)(=O)c1ccc(C(F)(F)F)cc1)CCC2)c1c(Cl)cccc1C(F)(F)F (stereo not shown) [IV-1] |
| < 150 | O=C(Nc1ccc2c(c1)C(S(=O)(=O)c1ccc(C(F)(F)F)cc1)CCC2)c1c(F)cccc1C(F)(F)F (stereo not shown) [IV-2] |
| < 150 | O=C(Nc1ccc2c(c1)C(S(=O)(=O)c1ccc(C(F)(F)F)cc1)CCC2)c1c(F)cccc1F (stereo not shown) [IV-4] |
